USRE39221E1, “Composition comprising a tramadol material and acetaminophen and its use” (priority 1991, dated 2006)
Read-outs that look alike come from different tables or passages of the source.

Tested on: acetylcholine-induced abdominal constriction
Assay: prevention of acetylcholine-induced abdominal constriction in mice (analgesic activity)
Format: in vivo, mice (male CD1)
Conditions: for ED50: Mus musculus, po, 0.5 h; for analgesia: 30 min
Experimental: Male CD1 mice (weighing from 18-24 g) were utilized in determining the analgesic effects associated with the compositions of the invention. The mice were all dosed orally with tramadol hydrochloride (calculated as the base), which was completely dissolved in distilled water, and acetaminophen (calculated as the base), which was completely dissolved in distilled water or in distilled water containing 2% by volume of Tween 80 containing 100% polysorbate 80. The dosing volume was 10 mL/kg.
The procedure used in detecting and comparing the analgesic activity of different classes of analgesia drugs for which there is a good correlation with human efficacy is the prevention of acetylcholine-induced abdominal constriction in mice (H. Collier et al., Br. J. Pharmacol., 32, 295 (1968)).
Mice, intubated with various doses of tramadol hydrochloride alone, acetaminophen alone, combined doses of tramadol hydrochloride and acetaminophen, or vehicle such as distilled water, or distilled water containing 2% by volume of Tween 80, were injected intraperitoneally with a challenge dose of acetylcholine bromide. The acetylcholine was completely dissolved in distilled water at a concentration of […] and injected at the rate of 0.20 mL/20 g. For scoring purposes an “abdominal constriction” was defined as a contraction of the abdominal musculature accompanied by arching of the back and extension of the limbs. The mice were observed 10 minutes for the presence or absence of the abdominal constriction response beginning immediately after receiving the acetylcholine dose, which was 30 minutes after receiving the oral administration of tramadol hydrochloride, acetaminophen, combined doses of tramadol hydrochloride and acetaminophen, or vehicle. Each mouse was used only once.
The analysis of possible superadditivity for the compositions at each fixed ratio was determined as disclosed by R. J. Tallarida et al., Life Sci., 45, 947 (1989). This procedure involved the determination of the total amount in the mixture that is required to produce a specified level of effect, such as 50% (ED50mix), and the corresponding total amount that would be expected under simple additivity (ED50add). Where it was established that ED50mix<ED50add for a specific fixed-ratio, then that composition ratio was superadditive. Both the quantities ED50mix and ED50add were random variables; ED50mix was estimated from the dose-response curve for a specific fixed-ratio; ED50add was obtained by combining the ED50 estimates for the two drugs under additivity. ED50mix was then compared to ED50add via a Student's t-test.
The interaction between tramadol and acetaminophen was determined at precise dosage ratios of tramadol hydrochloride and acetaminophen. Multiple (typically 4-6) coded doses of each selected combination were studied for analgesic effectiveness after 30 minutes using an experimental design which permitted the complete randomization of the separate dosage forms tested.
In FIG. 1, the diagonal line joining the ED50 values of the two drugs given separately represents the simple additivity of effects at different component ratios. The dotted lines adjacent to the diagonal line define the 95% confidence interval. ED50 values falling under the curve (between the line and the origin) indicate superadditivity, i.e., unexpected enhancement of effects. The diagonal dashed lines radiating from the origin represent the dose ratios of APAP to tramadol hydrochloride used in mice receiving the combined drug dosages. The bars through the ED50 points for the tramadol and APAP composition represent the 95% confidence intervals of the ED50 value.

COc1cccc([C@@]2(O)CCCC[C@@H]2CN(C)C)c1 (racemic) [tramadol only, (1RS, 2RS)-[(dimethylamino)-methyl]-1-(3-methoxy-phenyl)cyclohexanol]
ED50 (read-out: ED50 30 min (95% CI's) Tramadol): 5.5 mg/kg | analgesia (dose Tramadol 2 + APAP 0 mg/kg, p.o.): 3/15 | analgesia (dose Tramadol 3 + APAP 0 mg/kg, p.o.): 4/15 | analgesia (dose Tramadol 4 + APAP 0 mg/kg, p.o.): 14/45 | analgesia (dose Tramadol 6 + APAP 0 mg/kg, p.o.): 20/45 | analgesia (dose Tramadol 8 + APAP 0 mg/kg, p.o.): 40/60 | analgesia (dose Tramadol 10 + APAP 0 mg/kg, p.o.): 15/15 | analgesia (dose Tramadol 16 + APAP 0 mg/kg, p.o.): 14/15

CC(=O)Nc1ccc(O)cc1 [APAP only, acetaminophen]
ED50 (APAP component of the ED50, p.o., 30 min after dosing, read-out: ED50 30 min (95% CI's) APAP): 164 mg/kg | analgesia (dose Tramadol 0 + APAP 30 mg/kg, p.o.): 2/15 | analgesia (dose Tramadol 0 + APAP 40 mg/kg, p.o.): 12/43 | analgesia (dose Tramadol 0 + APAP 50 mg/kg, p.o.): 1/15 | analgesia (dose Tramadol 0 + APAP 60 mg/kg, p.o.): 8/30 | analgesia (dose Tramadol 0 + APAP 80 mg/kg, p.o.): 23/60 | analgesia (dose Tramadol 0 + APAP 100 mg/kg, p.o.): 13/30 | analgesia (dose Tramadol 0 + APAP 120 mg/kg, p.o.): 13/30 | analgesia (dose Tramadol 0 + APAP 160 mg/kg, p.o.): 10/30 | analgesia (dose Tramadol 0 + APAP 200 mg/kg, p.o.): 13/25 | analgesia (dose Tramadol 0 + APAP 240 mg/kg, p.o.): 14/25 | analgesia (dose Tramadol 0 + APAP 400 mg/kg, p.o.): 12/15 | analgesia (dose Tramadol 0 + APAP 800 mg/kg, p.o.): 13/15
